# Results reported in ChEMBL document CHEMBL3769337, “Inspired by magnolol: design of NSAID-based compounds with excellent anti-inflammatory effects” (2015).
# Activity calls are given as the source filed them. The rule behind the calls is not given here.
# How the values were obtained:
# [1] = test system: Mus musculus; experiment: Antiinflammatory activity in TPA induced BALB/c mouse ear edema model assessed as decrease in weight of ear punches at 0.75 uM administered topically for 6 mins prior to TPA challenge measured after 6 hrs relative to control; type: functional; design: scale not given: the % may be the effect or the level left
# [2] = test system: Mus musculus; experiment: In vivo inhibition of TPA induced p65 translocation form cytoplasm to nucleus in TPA induced BALB/c mouse ear edema model administered topically for 6 mins prior to TPA challenge measured after 6 hrs by immunohistochemical analysis; type: functional, organism-based
# [3] = test system: Mus musculus; experiment: Decrease in TPA induced IL-1beta levels in TPA induced BALB/c mouse ear edema model administered topically for 6 mins prior to TPA challenge measured after 6 hrs by immunohistochemical analysis; type: functional, organism-based
# [4] = test system: Mus musculus; experiment: (§1) Antiinflammatory activity in TPA induced BALB/c mouse ear edema model assessed as decrease in inflammatory cell infiltration level administered topically for 6 mins prior to TPA challenge measured after 6 hrs by Hematoxylin and Eosin staining based microscopy; type: functional, organism-based
# [5] = test system: Mus musculus; experiment: In vivo inhibition of TPA induced IKK activity in TPA induced BALB/c mouse ear edema model administered topically for 6 mins prior to TPA challenge measured after 6 hrs by immunohistochemical analysis; type: functional, organism-based
# [6] = test system: Mus musculus; experiment: Antiinflammatory activity in TPA induced BALB/c mouse ear edema model assessed as morphological alterations administered topically for 6 mins prior to TPA challenge measured after 6 hrs by Hematoxylin and Eosin staining based microscopy; type: functional, organism-based
# [7] = test system: Mus musculus; experiment: Decrease in TPA induced TNF-alpha levels in TPA induced BALB/c mouse ear edema model administered topically for 6 mins prior to TPA challenge measured after 6 hrs by immunohistochemical analysis; type: functional, organism-based
# [8] = test system: Mus musculus; experiment: In vivo inhibition of TPA induced NF-kappa-B transcriptional activity in TPA induced BALB/c mouse ear edema model administered topically for 6 mins prior to TPA challenge measured after 6 hrs by immunohistochemical analysis; type: functional, organism-based
# [9] = test system: Mus musculus; experiment: In vivo inhibition of TPA induced I-kappa-B-alpha phosphorylation in TPA induced BALB/c mouse ear edema model administered topically for 6 mins prior to TPA challenge measured after 6 hrs by immunohistochemical analysis; type: functional, organism-based
# [10] = test system: Mus musculus; experiment: Decrease in TPA induced IL6 levels in TPA induced BALB/c mouse ear edema model administered topically for 6 mins prior to TPA challenge measured after 6 hrs by immunohistochemical analysis; type: functional, organism-based
# [11] = test system: Mus musculus; experiment: Decrease in nuclear level of phosphorylated p65 in TPA induced BALB/c mouse ear edema model administered topically for 6 mins prior to TPA challenge measured after 6 hrs by immunohistochemical analysis; type: functional, organism-based
# [12] = test system: Mus musculus; experiment: Antiinflammatory activity in TPA induced BALB/c mouse ear edema model assessed as decrease in weight of ear punches administered topically for 6 mins prior to TPA challenge measured after 6 hrs relative to control; type: functional; design: concentration or dose not given beside the values; scale not given: the % may be the effect or the level left
# [13] = test system: Mus musculus; experiment: Antiinflammatory activity in TPA induced BALB/c mouse ear edema model assessed as decrease in weight of ear punches at 0.1 uM administered topically for 6 mins prior to TPA challenge measured after 6 hrs relative to control; type: functional; design: scale not given: the % may be the effect or the level left
# [14] = test system: Mus musculus; experiment: Antiinflammatory activity in TPA induced BALB/c mouse ear edema model assessed as decrease in weight of ear punches at 1.5 uM administered topically for 6 mins prior to TPA challenge measured after 6 hrs relative to control; type: functional; design: scale not given: the % may be the effect or the level left
# [15] = test system: Mus musculus; experiment: Antiinflammatory activity in TPA induced BALB/c mouse ear edema model assessed as decrease in weight of ear punches compound co-treated with diflunisal at 1:1 compound to diflunisal ratio administered topically for 6 mins prior to TPA challenge measured after 6 hrs relative to control; type: functional; design: scale not given: the % may be the effect or the level left
# [16] = test system: Mus musculus; experiment: Antiinflammatory activity in TPA induced BALB/c mouse ear edema model assessed as decrease in weight of ear punches compound co-treated with flufenamic acid at 1:1 compound to flufenamic acid ratio administered topically for 6 mins prior to TPA challenge measured after 6 hrs relative to control; type: functional; design: scale not given: the % may be the effect or the level left
# [17] = test system: Mus musculus; experiment: Antiinflammatory activity in TPA induced BALB/c mouse ear edema model assessed as decrease in weight of ear punches compound co-treated with ketoprofen at 1:2 compound to ketoprofen ratio administered topically for 6 mins prior to TPA challenge measured after 6 hrs relative to control; type: functional; design: scale not given: the % may be the effect or the level left
# [18] = test system: Mus musculus; experiment: Antiinflammatory activity in TPA induced BALB/c mouse ear edema model assessed as decrease in weight of ear punches compound co-treated with diclofenac at 1:1 compound to diclofenac ratio administered topically for 6 mins prior to TPA challenge measured after 6 hrs relative to control; type: functional; design: scale not given: the % may be the effect or the level left
# [19] = test system: Mus musculus; experiment: Antiinflammatory activity in TPA induced BALB/c mouse ear edema model assessed as decrease in weight of ear punches compound co-treated with ketoprofen at 1:1 compound to ketoprofen ratio administered topically for 6 mins prior to TPA challenge measured after 6 hrs relative to control; type: functional; design: scale not given: the % may be the effect or the level left
# [20] = test system: Mus musculus; experiment: Antiinflammatory activity in TPA induced BALB/c mouse ear edema model assessed as decrease in weight of ear punches at 3 uM administered topically for 6 mins prior to TPA challenge measured after 6 hrs relative to control; type: functional; design: scale not given: the % may be the effect or the level left
# [21] = test system: Mus musculus; experiment: Antiinflammatory activity in TPA induced BALB/c mouse ear edema model assessed as decrease in weight of ear punches compound co-treated with flufenamic acid at 1:2 compound to flufenamic acid ratio administered topically for 6 mins prior to TPA challenge measured after 6 hrs relative to control; type: functional; design: scale not given: the % may be the effect or the level left
# [22] = test system: Mus musculus; experiment: Antiinflammatory activity in TPA induced BALB/c mouse ear edema model assessed as decrease in weight of ear punches compound co-treated with naproxen at 1:1 compound to naproxen ratio administered topically for 6 mins prior to TPA challenge measured after 6 hrs relative to control; type: functional; design: scale not given: the % may be the effect or the level left
# [23] = test system: Mus musculus; experiment: as §1, with “level compound cotreated with ketoprofen at 1:1 compound to ketoprofen ratio” for “level”; type: functional, organism-based
# [24] = test system: Mus musculus; experiment: Antiinflammatory activity in TPA induced BALB/c mouse ear edema model assessed as decrease in weight of ear punches at 0.325 uM administered topically for 6 mins prior to TPA challenge measured after 6 hrs relative to control; type: functional; design: scale not given: the % may be the effect or the level left
# [25] = test system: Mus musculus; experiment: Antiinflammatory activity in TPA induced BALB/c mouse ear edema model assessed as decrease in weight of ear punches compound co-treated with naproxen at 1:2 compound to naproxen ratio administered topically for 6 mins prior to TPA challenge measured after 6 hrs relative to control; type: functional; design: scale not given: the % may be the effect or the level left
structure (smiles),measurement,setting,value
C=CCc1ccc(OC(=O)c2ccccc2Nc2cccc(C(F)(F)F)c2)c(-c2cc(CC=C)ccc2OC(=O)c2ccccc2Nc2cccc(C(F)(F)F)c2)c1,Activity,[1],<=90%
C=CCc1ccc(O)c(-c2cc(CC=C)ccc2OC(=O)c2cc(-c3ccc(F)cc3F)ccc2O)c1,Activity,[1],<=90%
C=CCc1ccc(OC(=O)C(C)c2cccc(C(=O)c3ccccc3)c2)c(-c2cc(CC=C)ccc2OC(=O)C(C)c2cccc(C(=O)c3ccccc3)c2)c1 (stereo unspecified),Activity,[1],<=90%
C=CCc1ccc(O)c(-c2cc(CC=C)ccc2OC(=O)c2ccccc2Nc2cccc(C(F)(F)F)c2)c1,Activity,[1],<=90%
C=CCc1ccc(O)c(-c2cc(CC=C)ccc2OC(=O)C(C)c2cccc(C(=O)c3ccccc3)c2)c1 (stereo unspecified),inhibition,[2],Active
same,Activity,[3],Active
same,Activity,[4],Active
same,inhibition,[5],Active
same,Activity,[1],<=90%
same,Activity,[6],Active
same,Activity,[7],Active
same,inhibition,[8],Active
same,inhibition,[9],Active
same,Activity,[10],Active
same,Activity,[11],Active
C=CCc1ccc(OC(=O)[C@@H](C)c2ccc3cc(OC)ccc3c2)c(-c2cc(CC=C)ccc2OC(=O)[C@@H](C)c2ccc3cc(OC)ccc3c2)c1,Activity,[1],<=90%
C=CCc1ccc(O)c(-c2cc(CC=C)ccc2OC(=O)[C@@H](C)c2ccc3cc(OC)ccc3c2)c1,Activity,[1],<=90%
C=CCc1ccc(O)c(-c2cc(CC=C)ccc2OC(=O)Cc2ccccc2Nc2c(Cl)cccc2Cl)c1,Activity,[1],<=90%
C=CCc1ccc(OC(=O)CC2(CC)OCCc3c2[nH]c2c(CC)cccc32)c(-c2cc(CC=C)ccc2OC(=O)CC2(CC)OCCc3c2[nH]c2c(CC)cccc32)c1 (stereo unspecified),Activity,[1],inactive
C=CCc1ccc(OC(=O)Cc2ccccc2Nc2c(Cl)cccc2Cl)c(-c2cc(CC=C)ccc2OC(=O)Cc2ccccc2Nc2c(Cl)cccc2Cl)c1,Activity,[1],inactive
C=CCc1ccc(OC(=O)c2cc(-c3ccc(F)cc3F)ccc2O)c(-c2cc(CC=C)ccc2OC(=O)c2cc(-c3ccc(F)cc3F)ccc2O)c1,Activity,[1],inactive
C=CCc1ccc(OC(=O)c2ccccc2Nc2cccc(C)c2C)c(-c2cc(CC=C)ccc2OC(=O)c2ccccc2Nc2cccc(C)c2C)c1,Activity,[1],inactive
C=CCc1ccc(OC(=O)c2ccccc2O)c(-c2cc(CC=C)ccc2OC(=O)c2ccccc2O)c1,Activity,[1],inactive
O=C(O)Cc1ccccc1Nc1c(Cl)cccc1Cl [DICLOFENAC],Activity,[12],78.3%
O=C(O)c1cc(-c2ccc(F)cc2F)ccc1O [DIFLUNISAL],Activity,[12],80.5%
O=C(O)c1ccccc1Nc1cccc(C(F)(F)F)c1 [FLUFENAMIC ACID],Activity,[12],75.8%
CC(C(=O)O)c1cccc(C(=O)c2ccccc2)c1 (stereo unspecified) [KETOPROFEN],Activity,[4],Active
same,Activity,[12],10.9%
C=CCc1ccc(O)c(-c2cc(CC=C)ccc2O)c1 [MAGNOLOL],Activity,[13],8.3%
same,Activity,[14],91.7%
same,Activity,[4],Active
same,Activity,[15],94.9%
same,Activity,[16],70.4%
same,Activity,[17],72.7%
same,Activity,[18],87.9%
same,Activity,[1],58.3%
same,Activity,[19],16.6%
same,Activity,[12],Dose-dependent effect
same,Activity,[12]; record 2,52.2%
same,Activity,[20],96.7%
same,Activity,[21],54.2%
same,Activity,[22],40.2%
same,Activity,[23],Active
same,Activity,[24],16.7%
same,Activity,[25],92.8%
COc1ccc2cc([C@H](C)C(=O)O)ccc2c1 [NAPROXEN],Activity,[12],46%
